Results: patent publication US12152048B2, “Nitroxoline prodrug and use thereof” (Jiangsu Yahong Meditech Co., Ltd., priority 2018, dated 2024)
Values after ≈ are worked out from the molar mass of the structure shown. Values belong to the compound of their own block, whether it stands above or below them.

How the values were obtained:
[1] = Determination of water solubility in phosphate buffer; type: physicochemical; details: for solubility at 24 h: thermodynamic from solid; for water solubility compared with nitroxoline: conclusion in words
Source text: Experimental instruments: 96-well filter plate (MSHVN4510 or MSHVN4550, Millipore); electronic digital display vortex mixer (MS3 Digital, IKA); multi-purpose vacuum pump (circulating water type, SHB-111, Zhengzhou Greatwall Scientific Industrial and Trade Co., Ltd.); balance (XSLT05, Mettler-Toledo); comfortable mixer (Eppendorf AG 22331 Hamburg, Eppendorf); liquid chromatography (LC-3AD, Shimadzu); mass spectrometry (API4000, Applied Biosystems, USA); sample injector (Anylytics AG System, CTC). Nitroxoline was prepared according to the method disclosed in Journal of Heterocyclic Chemistry, 1971, vol. 8, p 821 by Wisdom Pharmaceutical Co., Ltd.
Experimental process: 500 μL of phosphate buffer (pH=1.2, 4.5, 6.8 or 7.4) were added to a glass flask, to which 2 mg of compound powder were added. The flask was sealed with a cap and shaked on a mixer (VORTEX-GENIE2) at room temperature for 24 hours. The solution was subjected to vacuum filtration, and the filtrate was processed to determine the compound concentration by LC/MS/MS.

[2] = Stability in rat liver microsome; details: 2 μM, 37° C., 30 minutes
[3] = Stability in human liver microsome; details: 2 μM, 37° C., 30 minutes
Method: Experimental instruments: thermostatic shaker (SHA-B, Guohua Electric Appliance Co., Ltd.); centrifuge (5810R, Eppendorf); mass spectrometry (API4000, Applied Biosystems, USA); liquid chromatography (LC-30AD, Shimadzu); sample injector (CTC Analytics AG System, CTC).
Experimental process: 25 μg/mL alamethicin (Aldrich), 5 mM magnesium chloride and 0.5 mg/mL microsome (XENOTECH) were added to 100 mM phosphate buffer to obtain a coenzyme-free reaction solution. A portion of the coenzyme-free reaction solution was added with 1 mM reductive nicotinamide adenine dinucleotide phosphate (Aldrich) and 5 mM uridine diphosphate glucuronic acid (Aldrich) to obtain a coenzyme-containing reaction solution. The working solution of the compound of the present invention was added to the two reaction solutions so that the final concentration of the compound was 2 μM. Immediately after mixing well, 50 μL of the solution were taken out as the 0 minute sample, and 50 μL of the remaining sample were taken out after incubating at 37° C. for 30 minutes. All the samples taken out were immediately processed to precipitate protein, and centrifuged to obtain a supernate for the determination of the compound concentration by LC/MS/MS.

[4] = Stability in dog liver microsome; details: 2 μM, 37° C., 30 minutes
[5] = Stability in mouse liver microsome; type: in vitro ADME; details: 2 μM, 37° C., 30 minutes
[6] = aqueous buffer, phosphate buffer pH 7.4, room temperature
[7] = simulated gastric fluid, phosphate buffer pH 1.2, room temperature

- solubility at 24 h [1, 6]: 19.9 µg/mL (≈ 68.9 µM)
Compound: O=C1CCCC(Oc2ccc([N+](=O)[O-])c3cccnc23)O1 (stereo not shown) [Compound 44, 6-(5-nitroquinolin-8-yloxy)-tetrahydropyran-2-one]

- solubility at 24 h [1, 6]: 254 µg/mL (≈ 669 µM)
- solubility at 24 h [1, 7]: 443 µg/mL (≈ 1170 µM)
Compound: CSC[C@H](NC(C)=O)C(=O)OCOc1ccc([N+](=O)[O-])c2cccnc12 [Compound 16, (R)-(5-nitroquinolin-8-yloxy)methyl 2-acetamido-3-(methylthio)propionate]

- solubility at 24 h [1, 6]: 21.2 µg/mL (≈ 70.3 µM)
Compound: Cc1oc(=O)oc1COc1ccc([N+](=O)[O-])c2cccnc12 [Compound 77, 4-methyl-5-((5-nitroquinolin-8-yloxy)methyl)-1,3-dioxol-2-one]

- solubility at 24 h [1, 6]: 0.04 µg/mL (≈ 0.0945 µM)
Compound: O=C(COc1ccc(Cl)cc1Cl)OCOc1ccc([N+](=O)[O-])c2cccnc12 [Compound 35, (5-nitroquinolin-8-yloxy)methyl 2-(2,4-dichlorophenoxy)acetate]

- solubility at 24 h [1, 6]: < 0.44 µg/mL
Compound: O=C(O)CCC(=O)OCOc1ccc([N+](=O)[O-])c2cccnc12 [Compound 8, 4-((5-nitroquinolin-8-yloxy)methoxy)-4-oxobutanoic acid]

- solubility at 24 h [1, 6]: 28.4 µg/mL (≈ 94.1 µM)
Compound: O=C(OCOc1ccc([N+](=O)[O-])c2cccnc12)C1CCC1 [Compound 32, (5-nitroquinolin-8-yloxy)methyl cyclobutanecarboxylate]

- Percentage of the compound remaining in rat liver microsome ([2]; with coenzyme): 0.06%
- Percentage of the compound remaining in rat liver microsome ([2]; without coenzyme): 0.03%
- Percentage of the compound remaining in mouse liver microsome ([5]; with coenzyme): 0.03%
- Percentage of the compound remaining in mouse liver microsome ([5]; without coenzyme): 0.05%
- Percentage of the compound remaining in human liver microsome ([3]; with coenzyme): 0.08%
- Percentage of the compound remaining in human liver microsome ([3]; without coenzyme): 0.10%
- Percentage of the compound remaining in dog liver microsome ([4]; with coenzyme): 0.03%
- Percentage of the compound remaining in dog liver microsome ([4]; without coenzyme): 0.02%
Compound: CCC(=O)OC(C)Oc1ccc([N+](=O)[O-])c2cccnc12 (stereo not shown) [Compound 48, 1-(5-nitroquinolin-8-yloxy)ethyl propionate]

- Percentage of the compound remaining in rat liver microsome ([2]; with coenzyme): 0.05%
- Percentage of the compound remaining in rat liver microsome ([2]; without coenzyme): 0.03%
- solubility at 24 h [1, 6]: 66.9 µg/mL (≈ 185 µM)
- Percentage of the compound remaining in human liver microsome ([3]; with coenzyme): 0.01%
- Percentage of the compound remaining in human liver microsome ([3]; without coenzyme): 0.01%
- Percentage of the compound remaining in dog liver microsome ([4]; with coenzyme): 0.01%
- Percentage of the compound remaining in dog liver microsome ([4]; without coenzyme): 0.04%
Compound: COC(=O)CCCCC(=O)OCOc1ccc([N+](=O)[O-])c2cccnc12 [Compound 11, methyl (5-nitroquinolin-8-yloxy)methyl adipate]

- solubility at 24 h [1, 6]: 10.8 µg/mL (≈ 37.1 µM)
Compound: COCC(=O)OCOc1ccc([N+](=O)[O-])c2cccnc12 [Compound 31, (5-nitroquinolin-8-yloxy)methyl 2-methoxyacetate]

- solubility at 24 h [1, 6]: < 0.4 µg/mL
Compound: CCCCCCCC(=O)OCOc1ccc([N+](=O)[O-])c2cccnc12 [Compound 41, (5-nitroquinolin-8-yloxy)methyl octanoate]

- solubility at 24 h [1, 6]: 7.4 µg/mL (≈ 23.2 µM)
Compound: CCCCCC(=O)OCOc1ccc([N+](=O)[O-])c2cccnc12 [Compound 40, (5-nitroquinolin-8-yloxy)methyl hexanoate]

- solubility at 24 h [1, 6]: 298 µg/mL (≈ 858 µM)
Compound: O=C(CN1CCOCC1)OCOc1ccc([N+](=O)[O-])c2cccnc12 [Compound 36, (5-nitroquinolin-8-yloxy)methyl 2-morpholinoacetate]

Second part, the compound before the results:

Compound: CC(C)(C)C(=O)N1CCC[C@@H]1C(=O)OCOc1ccc([N+](=O)[O-])c2cccnc12 [Compound 24, (R)-(5-nitroquinolin-8-yloxy)methyl 1-pivaloylpyrrolidine-2-carboxylate]
- solubility at 24 h [1, 6]: 73.6 µg/mL (≈ 183 µM)
- solubility at 24 h [1, 7]: 942 µg/mL (≈ 2350 µM)

Compound: CC(=O)N[C@@H](CC(C)C)C(=O)NCC(=O)OCOc1ccc([N+](=O)[O-])c2cccnc12 [Compound 15, (S)-(5-nitroquinolin-8-yloxy)methyl 2-(2-acetamido-4-methylpentanamido)acetate]
- solubility at 24 h [1, 6]: 205 µg/mL (≈ 475 µM)

Compound: CC(C)(C)OC(=O)N[C@@H](Cc1ccccc1)C(=O)OCOc1ccc([N+](=O)[O-])c2cccnc12 [Compound 13, (S)-(5-Nitroquinolin-8-yloxy)methyl 2-(tert-butoxycarbonylamino)-3-phenylpropionate]
- Percentage of the compound remaining in rat liver microsome ([2]; with coenzyme): 0.01%
- Percentage of the compound remaining in rat liver microsome ([2]; without coenzyme): 0.02%
- Percentage of the compound remaining in human liver microsome ([3]; with coenzyme): 0.01%
- Percentage of the compound remaining in human liver microsome ([3]; without coenzyme): 0.02%
- Percentage of the compound remaining in dog liver microsome ([4]; with coenzyme): 0.02%
- Percentage of the compound remaining in dog liver microsome ([4]; without coenzyme): 0.02%

Compound: O=C(CCCCCCCO)OCOc1ccc([N+](=O)[O-])c2cccnc12 [Compound 10, (5-nitroquinolin-8-yloxy)methyl 8-hydroxyoctanoate]
- Percentage of the compound remaining in rat liver microsome ([2]; with coenzyme): 0.02%
- Percentage of the compound remaining in rat liver microsome ([2]; without coenzyme): 0.03%
- solubility at 24 h [1, 6]: 39.1 µg/mL (≈ 108 µM)
- Percentage of the compound remaining in human liver microsome ([3]; with coenzyme): 0.01%
- Percentage of the compound remaining in human liver microsome ([3]; without coenzyme): 0.04%
- Percentage of the compound remaining in dog liver microsome ([4]; with coenzyme): 0.01%
- Percentage of the compound remaining in dog liver microsome ([4]; without coenzyme): 0.04%

Compound: CC(C)C(=O)N1CCC[C@@H]1C(=O)OCOc1ccc([N+](=O)[O-])c2cccnc12 [Compound 23, (R)-(5-nitroquinolin-8-yloxy)methyl 1-isopropionylpyrrolidine-2-carboxylate]
- solubility at 24 h [1, 6]: 818 µg/mL (≈ 2110 µM)
- water solubility compared with nitroxoline [1]: increased by several times
- solubility at 24 h [1, 7]: 945 µg/mL (≈ 2440 µM)

Compound: CCCOC(=O)N1CCC[C@H]1C(=O)OCOc1ccc([N+](=O)[O-])c2cccnc12 [Compound 18, (S)-2-(5-nitroquinolin-8-yloxy)methyl 1-propyl pyrrolidine-1,2-dicarboxylate]
- Percentage of the compound remaining in rat liver microsome ([2]; with coenzyme): 0.06%
- Percentage of the compound remaining in rat liver microsome ([2]; without coenzyme): 4.63%
- Percentage of the compound remaining in mouse liver microsome ([5]; with coenzyme): 0.26%
- Percentage of the compound remaining in mouse liver microsome ([5]; without coenzyme): 0.00%
- solubility at 24 h [1, 6]: 132 µg/mL (≈ 328 µM)
- water solubility compared with nitroxoline [1]: increased by several times
- Percentage of the compound remaining in human liver microsome ([3]; with coenzyme): 2.65%
- Percentage of the compound remaining in human liver microsome ([3]; without coenzyme): 5.06%
- Percentage of the compound remaining in dog liver microsome ([4]; with coenzyme): 0.14%
- Percentage of the compound remaining in dog liver microsome ([4]; without coenzyme): 1.40%

Compound: CCCCCCCCCC(=O)OCOc1ccc([N+](=O)[O-])c2cccnc12 [Compound 42, (5-nitroquinolin-8-yloxy)methyl decanoate]
- solubility at 24 h [1, 6]: < 0.26 µg/mL

Compound: CCCCCCCCCCCC(=O)OCOc1ccc([N+](=O)[O-])c2cccnc12 [Compound 43, (5-nitroquinolin-8-yloxy)methyl dodecanoate]
- solubility at 24 h [1, 6]: < 0.25 µg/mL

Compound: O=C(OCOc1ccc([N+](=O)[O-])c2cccnc12)[C@@H]1CCCN1C(=O)c1ccccn1 [Compound 25, (S)-(5-nitroquinolin-8-yloxy)methyl 1-pyridineformylpyrrolidine-2-carboxylate]
- solubility at 24 h [1, 6]: 275 µg/mL (≈ 651 µM)

Compound: CC(=O)N[C@@H](CO)C(=O)N1CCC[C@H]1C(=O)OCOc1ccc([N+](=O)[O-])c2cccnc12 [Compound 30, (S)-(5-nitroquinolin-8-yloxy)methyl 1-((S)-2-acetamido-3-hydroxypropionyl)pyrrolidine-2-carboxylate]
- solubility at 24 h [1, 6]: < 0.25 µg/mL
- water solubility compared with nitroxoline [1]: increased by several times
- solubility at 24 h [1, 7]: 940 µg/mL (≈ 2110 µM)

Compound: O=C(CCCCC(=O)OCOc1ccc([N+](=O)[O-])c2cccnc12)OCOc1ccc([N+](=O)[O-])c2cccnc12 [Compound 46, bis(5-nitroquinolin-8-yloxy)-methyl adipate]
- Percentage of the compound remaining in rat liver microsome ([2]; with coenzyme): 0.00%
- Percentage of the compound remaining in rat liver microsome ([2]; without coenzyme): 0.05%
- Percentage of the compound remaining in human liver microsome ([3]; with coenzyme): 0.00%
- Percentage of the compound remaining in human liver microsome ([3]; without coenzyme): 0.06%
- Percentage of the compound remaining in dog liver microsome ([4]; with coenzyme): 0.01%
- Percentage of the compound remaining in dog liver microsome ([4]; without coenzyme): 0.03%

Compound: CC(C)(C)OC(=O)NCCCCCCC(=O)OCOc1ccc([N+](=O)[O-])c2cccnc12 [Compound 12, (5-nitroquinolin-8-yloxy)methyl 7-(tert-butoxycarbonylamino)heptanoate]
- Percentage of the compound remaining in rat liver microsome ([2]; with coenzyme): 0.00%
- Percentage of the compound remaining in rat liver microsome ([2]; without coenzyme): 0.02%
- solubility at 24 h [1, 6]: 1.85 µg/mL (≈ 4.13 µM)
- Percentage of the compound remaining in human liver microsome ([3]; with coenzyme): 0.00%
- Percentage of the compound remaining in human liver microsome ([3]; without coenzyme): 0.03%
- Percentage of the compound remaining in dog liver microsome ([4]; with coenzyme): 0.00%
- Percentage of the compound remaining in dog liver microsome ([4]; without coenzyme): 0.02%

Compound: CC(C)OC(=O)OCOP(=O)(O)OCOc1ccc([N+](=O)[O-])c2cccnc12 [Compound 72, (hydroxy((5-nitroquinolin-8-yloxy)methoxy)phosphoryloxy)methyl isopropyl carbonate]
- solubility at 24 h [1, 6]: 1040 µg/mL (≈ 2490 µM)
- water solubility compared with nitroxoline [1]: increased by several times

Compound: CC(=O)Oc1ccccc1C(=O)OCOc1ccc([N+](=O)[O-])c2cccnc12 [Compound 34, (5-nitroquinolin-8-yloxy)methyl 2-acetoxybenzoate]
- solubility at 24 h [1, 6]: 6.67 µg/mL (≈ 17.4 µM)

Compound: CC(=O)N[C@@H](Cc1ccc(O)cc1)C(=O)N1CCC[C@H]1C(=O)OCOc1ccc([N+](=O)[O-])c2cccnc12 [Compound 28, (S)-(5-nitroquinolin-8-yloxy)methyl 1-((S)-2-acetamido-3-(4-hydroxyphenyl)propionyl)pyrrolidine-2-carboxylate]
- solubility at 24 h [1, 6]: 25.1 µg/mL (≈ 48.1 µM)
- solubility at 24 h [1, 7]: 342 µg/mL (≈ 654 µM)
